Bounds are passed on as bounds.

One assay concerns the target T1, FLT3 (Homo sapiens, UniProt P36888).
T1 construct: Recombinant proteins containing FLT3 and FLT3(D835Y) domains were purchased from Promega; purchased Promega V4064
T1 sequence (P36888 610-943 limits assumed): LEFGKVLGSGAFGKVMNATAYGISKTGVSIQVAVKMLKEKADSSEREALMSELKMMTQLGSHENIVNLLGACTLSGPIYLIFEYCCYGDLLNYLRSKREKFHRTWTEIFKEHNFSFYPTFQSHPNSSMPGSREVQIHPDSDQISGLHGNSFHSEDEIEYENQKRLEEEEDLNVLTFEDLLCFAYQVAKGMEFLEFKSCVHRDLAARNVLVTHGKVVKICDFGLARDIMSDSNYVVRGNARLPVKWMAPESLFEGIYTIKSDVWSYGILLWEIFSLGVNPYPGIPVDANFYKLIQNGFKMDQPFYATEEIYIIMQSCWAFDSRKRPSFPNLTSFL
Briefly: ADP-Glo kinase assay FLT3 WT. As to conditions: recombinant FLT3, 120 minutes at room temperature, read-out: Enzyme (IC50) FLT3 WT. The assay is classed as biochemical. As for the experimental part: FLT3 activity inhibition was measured using the ADP-Glo kinase assay method (Promega, cat #V9101). The ADP-Glo kinase assay method is a luminescent ADP detection assay method that provides a homogeneous, high-throughput screening method for measuring kinase activity by quantifying the amount of ADP produced during the kinase reaction.
The assay was performed in two steps. First, after the kinase reaction, an equal volume of ADP-Glo™ reagent was added to terminate the kinase reaction and deplete any remaining ATP. Second, a kinase detection reagent was added to convert ADP to ATP, and simultaneously the newly synthesized ATP was measured via the luciferase/luciferin reaction. The light produced was measured using a luminometer.
Recombinant proteins containing FLT3 and FLT3(D835Y) domains were purchased from Promega (cat #V4064, cat #V4514), respectively. According to the manufacturer's instructions, the optimal enzyme, ATP, and substrate concentrations were optimized using the ADP-Glo™ kinase assay method (Promega, USA). […] Thereafter, ADP-Glo™ reagent (5 μl) was added and reacted for an additional 40 minutes at room temperature. Finally, the detection reagent (kinase detection reagent, 10 μl) was added, followed by reaction at room temperature for 30 minutes, and the phosphorylation of the substrate peptide was measured by detecting the luciferase signal (integration time 0.5~1 sec) using a SpectraMax ID5 reader (Molecular Devices LLC., San Jose, CA, USA).
For orientation: ADP-Glo first removes unused ATP, then detects ADP through luciferase.
Turning to `COc1ccc2nc(-c3n[nH]c4ccc(C(=O)NCCCN(C)C)cc34)[nH]c2c1` [Example 11, N-(3-(dimethylamino)propyl)-3-(6-methoxy-1H-benzo[d]imidazol-2-yl)-1H-indazole-5-carboxamide], the IC50 (usually the midpoint of a concentration-inhibition curve) was under 10 nM.
Still for that read-out and setting: the value for `Cc1ccc2nc(-c3n[nH]c4ccc(C(=O)NCCCN(C)C)cc34)[nH]c2c1` [Example 12, N-(3-(dimethylamino)propyl)-3-(6-methyl-1H-benzo[d]imidazol-2-yl)-1H-indazole-5-carboxamide] was under 10 nM.
Consider `NCCCNC(=O)c1ccc2[nH]nc(-c3nc4ccc(CN5CCOCC5)cc4[nH]3)c2c1` [Example 26, N-(3-aminopropyl)-3-(6-(morpholinomethyl)-1H-benzo[d]imidazol-2-yl)-1H-indazole-5-carboxamide], for which the IC50 is under 10 nM.

The test system of a further assay is BaF3-ITD-FLT3 D835Y cell line. Briefly: Cell proliferation inhibition, Alamar Blue. The conditions noted are these: 72 hours of compound treatment, read-out: Cellular (GI50) BaF3-ITD-FLT3 D835Y. In kind it is cell-based. On the procedure: (§1) The cell proliferation inhibition experiment on acute myeloid leukemia (AML) cell lines was performed using FL3-ITD-expressing AML cell line MV4-11, BaF3-ITD-FLT3 F691L cell line, and BaF3-ITD-FLT3 D835Y cell line to test FLT3 inhibitory activity. All cell lines were human-derived cell lines, and the sources and culture conditions for each cell line are as follows.
(§2) Cell viability was assessed by a resazurin redox-based assay using the Alamar Blue Assay kit (Invitrogen, USA). Specifically, MV4-11, BaF3-ITD-FLT3-F691L, and BaF3-ITD-FLT3-D835Y cells were plated in 384-well plates at 8,000 cells in 45 μL of medium. As a negative control, dimethyl sulfoxide (DMSO) was added together with the compound. After three days (72 hours) of compound treatment, 5 μL of the Alamar Blue kit reagent was added to each well of the 384-well plates, followed by incubation at 37° C. for 2 hours in a humidified CO2 incubator. After incubation, fluorescence intensity (Flu) was measured at 544 nm and 590 nm using a SpectraMax iD3 Multi Mode Microplate Reader (Molecular Devices, ID3-STD).
Take `O=C(NCCCC(F)(F)F)c1ccc2[nH]nc(-c3nc4ccc(N5CCCC5)cc4[nH]3)c2c1` [Example 13, 3-(6-(pyrrolidin-1-yl)-1H-benzo[d]imidazol-2-yl)-N-(4,4,4-trifluorobutyl)-1H-indazole-5-carboxamide]: the GI50 (usually the concentration at which growth is held to half of that of the control) lay within 10 to 100 nM.

The subject of another assay is BaF3-ITD-FLT3 F691L cell line. Briefly: Cell proliferation inhibition, Alamar Blue. The assay is classed as cell-based. The conditions noted are these: 72 hours of compound treatment, read-out: Cellular (GI50) BaF3-ITD-FLT3 F691L. On the procedure:
as §1, §2
Background: Resazurin is reduced to fluorescent resorufin, in cell work by metabolically active cells.
As to `O=C(NCCCC(F)(F)F)c1ccc2[nH]nc(-c3nc4ccc(N5CCCC5)cc4[nH]3)c2c1` [Example 13, 3-(6-(pyrrolidin-1-yl)-1H-benzo[d]imidazol-2-yl)-N-(4,4,4-trifluorobutyl)-1H-indazole-5-carboxamide], the GI50 was in the range of 10 to 100 nM.

The subject of the next assay is MV4-11 cells (FLT3-ITD-expressing AML cell line). Briefly: Cell proliferation inhibition, Alamar Blue. In kind it is cell-based, human. As to conditions: Homo sapiens, MV4-11, 72 hours of compound treatment, read-out: Cellular (GI50) MV4-11. As for the experimental part:
as §1, §2
Regarding `COc1ccc2nc(-c3n[nH]c4ccc(C(=O)NCCCN(C)C)cc34)[nH]c2c1` [Example 11, N-(3-(dimethylamino)propyl)-3-(6-methoxy-1H-benzo[d]imidazol-2-yl)-1H-indazole-5-carboxamide], the GI50 is under 10 nM.
Still for that read-out and setting: the value for `Cc1ccc2nc(-c3n[nH]c4ccc(C(=O)NCCCN(C)C)cc34)[nH]c2c1` [Example 12, N-(3-(dimethylamino)propyl)-3-(6-methyl-1H-benzo[d]imidazol-2-yl)-1H-indazole-5-carboxamide] was under 10 nM; that for `O=C(NCCCC(F)(F)F)c1ccc2[nH]nc(-c3nc4ccc(N5CCCC5)cc4[nH]3)c2c1` [Example 13, 3-(6-(pyrrolidin-1-yl)-1H-benzo[d]imidazol-2-yl)-N-(4,4,4-trifluorobutyl)-1H-indazole-5-carboxamide] was 10 to 100 nM.
Still for that read-out and setting: the value for `NCCCNC(=O)c1ccc2[nH]nc(-c3nc4ccc(CN5CCOCC5)cc4[nH]3)c2c1` [Example 26, N-(3-aminopropyl)-3-(6-(morpholinomethyl)-1H-benzo[d]imidazol-2-yl)-1H-indazole-5-carboxamide] was 100 to 1000 nM; that for `NCCCNC(=O)c1ccc2[nH]nc(-c3nc4cccc(F)c4[nH]3)c2c1` [Example 25, N-(3-aminopropyl)-3-(7-fluoro-1H-benzo[d]imidazol-2-yl)-1H-indazole-5-carboxamide] was 10 to 100 nM.
On the same count and under the same terms, the figure for `O=C(N[C@@H]1CCCNC1)c1ccc2[nH]nc(-c3nc4ccc(F)cc4[nH]3)c2c1` [Example 41, (R)-3-(6-fluoro-1H-benzo[d]imidazol-2-yl)-N-(piperidin-3-yl)-1H-indazole-5-carboxamide] is over 1000 nM.
`CN1CCN(C2CCN(C(=O)c3ccc4[nH]nc(-c5nc6ccc(F)cc6[nH]5)c4c3)CC2)CC1` [Example 34, (3-(6-fluoro-1H-benzo[d]imidazol-2-yl)-1H-indazol-5-yl)(4-(4-methylpiperazin-1-yl)piperidin-1-yl)methanone]: the GI50 is over 1000 nM.
Regarding `NCCCNC(=O)c1ccc2[nH]nc(-c3ncc(-c4cccc(N5CCOCC5)c4)[nH]3)c2c1` [Example 91, N-(3-aminopropyl)-3-(5-(3-morpholinophenyl)-1H-imidazol-2-yl)-1H-indazole-5-carboxamide], the GI50 lay within 10 to 100 nM.
On to `NCCCNC(=O)c1ccc2[nH]nc(-c3nc(C(N)=O)c(-c4ccccc4)[nH]3)c2c1` [Example 113, N-(3-aminopropyl)-3-(4-carbamoyl-5-phenyl-1H-imidazol-2-yl)-1H-indazole-5-carboxamide], for which the GI50 fell in the range of 100 to 1000 nM.
Take `O=C(c1ccc2[nH]nc(-c3nc4ccc(N5CCOCC5)cc4[nH]3)c2c1)N1C[C@@H]2C[C@H]1CN2` [Example 66, ((1S,4S)-2,5-diazabicyclo[2.2.1]heptan-2-yl)(3-(6-morpholino-1H-benzo[d]imidazol-2-yl)-1H-indazol-5-yl)methanone]: the GI50 was 10 to 100 nM.
Take `CC(=O)N1CC(CNC(=O)c2ccc3[nH]nc(-c4nc5ccc(N6CCOCC6)cc5[nH]4)c3c2)C1` [Example 61, N-((1-acetylazetidin-3-yl)methyl)-3-(6-morpholino-1H-benzo[d]imidazol-2-yl)-1H-indazole-5-carboxamide]: the GI50 is over 1000 nM.
For the compound `COc1cccc(-c2cnc(-c3n[nH]c4ccc(C(=O)NCCCN)cc34)[nH]2)c1` [Example 88, N-(3-aminopropyl)-3-(5-(3-methoxyphenyl)-1H-imidazol-2-yl)-1H-indazole-5-carboxamide], the GI50 lay within 10 to 100 nM.
On to `NCCN1CCC(NC(=O)c2ccc3[nH]nc(-c4nc5ccccc5[nH]4)c3c2)CC1` [Example 112, N-(1-(2-aminoethyl)piperidin-4-yl)-3-(1H-benzo[d]imidazol-2-yl)-1H-indazole-5-carboxamide], for which the GI50 was 10 to 100 nM.
`CC(=O)NCCCNC(=O)c1ccc2[nH]nc(-c3nc4ccc(N5CCCCC5)cc4[nH]3)c2c1` [Example 33, N-(3-acetamidopropyl)-3-(6-(piperidin-1-yl)-1H-benzo[d]imidazol-2-yl)-1H-indazole-5-carboxamide]: the GI50 is under 10 nM.
Same read-out and setting: the value for `O=C(NCCCO)c1ccc2[nH]nc(-c3nc4ccc(F)cc4[nH]3)c2c1` [Example 111, 3-(6-fluoro-1H-benzo[d]imidazol-2-yl)-N-(3-hydroxypropyl)-1H-indazole-5-carboxamide] was 100 to 1000 nM.
As to `CN(C)CCCNC(=O)c1ccc2[nH]nc(-c3nc4ccc(F)cc4[nH]3)c2c1` [Example 36, N-(3-(dimethylamino)propyl)-3-(6-fluoro-1H-benzo[d]imidazol-2-yl)-1H-indazole-5-carboxamide], the GI50 lay within 10 to 100 nM.
Still for that read-out and setting: the figure for `O=C(c1ccc2[nH]nc(-c3nc4ccc(N5CCOCC5)cc4[nH]3)c2c1)N1C[C@H]2C[C@@H]1CN2` [Example 65, ((1R,4R)-2,5-diazabicyclo[2.2.1]heptan-2-yl)(3-(6-morpholino-1H-benzo[d]imidazol-2-yl)-1H-indazol-5-yl)methanone] is 10 to 100 nM; for `CN(C)CCNC(=O)c1ccc2[nH]nc(-c3nc(-c4ccccc4)c[nH]3)c2c1` [Example 95, N-(2-(dimethylamino)ethyl)-3-(4-phenyl-1H-imidazol-2-yl)-1H-indazole-5-carboxamide] it is 100 to 1000 nM; for `NCCCCNC(=O)c1ccc2[nH]nc(-c3nc4ccc(F)cc4[nH]3)c2c1` [Example 39, N-(4-aminobutyl)-3-(6-fluoro-1H-benzo[d]imidazol-2-yl)-1H-indazole-5-carboxamide] it is 100 to 1000 nM.
On to `NCCCNC(=O)c1ccc2[nH]nc(-c3ncc(-c4ccc(N5CCOCC5)cc4)[nH]3)c2c1` [Example 90, N-(3-aminopropyl)-3-(5-(4-morpholinophenyl)-1H-imidazol-2-yl)-1H-indazole-5-carboxamide], for which the GI50 lay within 100 to 1000 nM.
Still for that read-out and setting: the value for `NCCCNC(=O)c1ccc2[nH]nc(-c3nc4ccc(Cl)cc4[nH]3)c2c1` [Example 27, N-(3-aminopropyl)-3-(6-chloro-1H-benzo[d]imidazol-2-yl)-1H-indazole-5-carboxamide] was 10 to 100 nM.
Turning to `O=C(c1ccc2[nH]nc(-c3nc4ccccc4[nH]3)c2c1)N1CCN(c2ccc(F)cc2)CC1` [Example 3, (3-(1H-benzo[d]imidazol-2-yl)-1H-indazol-5-yl)(4-(4-fluorophenyl)piperazin-1-yl)methanone], the GI50 is over 1000 nM.
On the same count and under the same terms, the value for `CN(C)CCCNC(=O)c1ccc2[nH]nc(-c3nc4cc(F)c(F)cc4[nH]3)c2c1` [Example 9, 3-(5,6-difluoro-1H-benzo[d]imidazol-2-yl)-N-(3-(dimethylamino)propyl)-1H-indazole-5-carboxamide] was 10 to 100 nM; that for `CS(=O)(=O)NCCNC(=O)c1ccc2[nH]nc(-c3nc(-c4ccccc4)c[nH]3)c2c1` [Example 94, N-(2-(methylsulfonamido)ethyl)-3-(4-phenyl-1H-imidazol-2-yl)-1H-indazole-5-carboxamide] was over 1000 nM.
Turning to `CN1CCN(C(=O)c2ccc3[nH]nc(-c4nc5ccccc5[nH]4)c3c2)CC1` [Example 2, (3-(1H-benzo[d]imidazol-2-yl)-1H-indazol-5-yl)(4-methylpiperazin-1-yl)methanone], the GI50 lay within 100 to 1000 nM.

The values above are taken from patent publication US20260234129A1, “NOVEL IMIDAZOLE DERIVATIVE AND USE THEREOF” (PELEMED CO., LTD., priority 2023, published 2026).
